# Several values for one entry are separate records, joined by “and”; a condition that tells them apart may be missing. Identical values can stand only once.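 All cell lines were grown in 96-well plates and treated with compound for 48 hours. GI50: concentration for 50% inhibition of growth. TGI denotes the concentration required for complete inhibition of growth.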
# Experiments:
# Assay in all cases: NCI tumour cell line growth inhibition, 48 h
# [1] = test system: HCC-2998 colon
# [2] = test system: EKVX NSCLC
# [3] = test system: HOP-92 NSCLC
# [4] = test system: MALME-3M melanoma
# [5] = test system: SK-MEL-28 melanoma
# [6] = test system: OVCAR-5 ovarian
# [7] = test system: SF-268 CNS
# [8] = test system: SK-MEL-2 melanoma
# [9] = test system: SR leukemia
# [10] = test system: UACC-62 melanoma
Compound,GI50 [1],TGI [1],GI50 [2],TGI [2],GI50 [3],TGI [3],GI50 [4],TGI [4],GI50 [5],TGI [5],GI50 [6],TGI [6],GI50 [7],TGI [7],GI50 [8],TGI [8],GI50 [9],TGI [9],GI50 [10],TGI [10]
O=C1c2ccccc2C(=Cc2ccccc2)c2ccccc21,2.69 µM,10.1 µM,2.93 µM,37.9 µM,1450 nM,5.17 µM,6.2 µM,23.4 µM,4.23 µM,17.4 µM,5.04 µM,16.9 µM,3.34 µM,16.6 µM,1.78 µM,4.95 µM,871 nM,18.3 µM,1680 nM,10.3 µM
C/C(=C\C1=C(Cl)C(=O)c2ccccc2C1=O)C(=O)O,18.9 µM,33.3 µM,18.6 µM,37.2 µM,18600 nM,33 µM,24 µM,40.2 µM,20.2 µM,34.6 µM,22.5 µM,37.4 µM,18.3 µM,32.2 µM,18.1 µM,33.4 µM,24200 nM,> 100 µM,17200 nM,31.5 µM
C=C(C)C1CC2(C)C(C)CC(OC(=O)/C(C)=C\C)CC2C(OC(=O)/C(C)=C\C)C1O (stereo not drawn),–,> 100 µM,–,> 100 µM,–,> 100 µM,–,> 100 µM,–,> 100 µM,–,> 100 µM,–,> 100 µM,–,> 100 µM,–,45.1 µM,–,> 100 µM
NNC(=S)N/N=C(/C(=O)Nc1cc(Cl)ccc1Cl)C1C(=O)Nc2ccccc2S1=O (stereo not drawn),–,> 100 µM,–,> 100 µM,–,> 100 µM,–,> 100 µM,–,> 100 µM,–,> 100 µM,–,> 100 µM,–,> 100 µM,–,> 100 µM,–,> 100 µM
COc1cnc2c(c1)C(=O)c1c-2n(CCCN2CCC(O)CC2)c(=O)c2cc(F)ccc12,1.23 µM,9.98 µM,0.271 µM,1.62 µM,310 nM,3.22 µM,0.298 µM,1.2 µM,1.39 µM,9.8 µM,0.355 µM,1.6 µM,0.272 µM,8.32 µM,0.61 µM,2.86 µM,80.6 nM,1.19 µM,240 nM,0.918 µM
CC(=O)OCC(=O)O[C@@H]1C[C@]2(C(C)C)O[C@@]1(C)[C@@H]1CC[C@@H](C)[C@H]1[C@@H]2OC(=O)/C=C/c1ccccc1,20 µM,75.3 µM,13.8 µM,59.1 µM,8810 nM,22.9 µM,20.7 µM,88.8 µM,22.3 µM,83.4 µM,15.5 µM,33.6 µM,2.65 µM,62.2 µM,17.3 µM,39.1 µM,12200 nM,> 95.9 µM,14100 nM,38.3 µM
O=P(NC12CC3CC(CC(C3)C1)C2)(N1CC1)N1CC1,–,> 100 µM,–,> 100 µM,–,> 100 µM,–,> 100 µM,–,> 100 µM,–,> 100 µM,–,> 100 µM,–,> 100 µM,–,> 91.4 µM,–,> 72.2 µM
O=C([O][Hg][CH2]C1COC([CH2][Hg][O]C(=O)c2ccccc2)CO1)c1ccccc1 (stereo not drawn),17.6 µM and 3.65 µM,32.2 µM and 9.35 µM,20.7 µM and 19.5 µM,35.8 µM and 34.9 µM,1870 nM and 1940 nM,4.16 µM and 3.37 µM,2.06 µM and 1.7 µM,3.81 µM and 3.23 µM,15.9 µM and 1.75 µM,29.5 µM and 3.19 µM,18 µM,31.9 µM,17.9 µM and 3.51 µM,34 µM and 15.5 µM,12.8 µM and 1.84 µM,25.7 µM and 3.75 µM,2830 nM and 1650 nM,> 22.6 µM,16700 nM and 2260 nM,30.4 µM and 5.09 µM
O=C(CF)N(O)c1ccc(/C=C/c2ccccc2)cc1,1.64 µM,7.69 µM,15.8 µM,> 100 µM,3970 nM,35.7 µM,24.6 µM,> 100 µM,> 40.4 µM,> 100 µM,8.26 µM,> 100 µM,2.78 µM,> 100 µM,27.1 µM,> 100 µM,257 nM,4.04 µM,1810 nM,10.7 µM
Cc1cccc(C(=O)/C=C/SC(=NC#N)SCc2ccccc2)c1,19.3 µM,39.4 µM,28 µM,63.2 µM,12300 nM,47.9 µM,12.3 µM,32 µM,25.8 µM,67 µM,19.4 µM,38.1 µM,28.8 µM,> 100 µM,48.5 µM,> 100 µM,3990 nM,> 100 µM,19400 nM,40.7 µM
CC(=O)c1cccc(NC(=O)C(=O)C(C2OC(=O)c3ccccc32)[N+](=O)[O-])c1 (stereo not drawn),–,> 100 µM,–,> 100 µM,–,> 100 µM,–,> 100 µM,–,> 100 µM,–,> 100 µM,–,> 100 µM,–,> 100 µM,–,> 100 µM,–,> 100 µM
CCOC(=O)c1cc2c(nc1N)-c1ncccc1CC2,–,> 100 µM,–,> 100 µM,–,> 100 µM,–,> 100 µM,–,> 100 µM,–,> 100 µM,–,> 100 µM,–,> 100 µM,–,57 µM,–,> 100 µM
O=C(Nc1ccc(Cl)cc1F)c1cc(I)ccc1O,3.1 µM,11.9 µM,1.62 µM,8.8 µM,171 nM,0.679 µM,0.608 µM,3.87 µM,0.487 µM,3.38 µM,4.21 µM,> 100 µM,1.67 µM,15.1 µM,0.836 µM,4.25 µM,1500 nM,> 100 µM,448 nM,2.19 µM
CC(=O)C1=C(C)Cn2c(=O)c3ccccc3c(=O)n2C1,–,> 100 µM,–,> 100 µM,–,> 100 µM,–,> 100 µM,–,> 100 µM,–,> 100 µM,–,> 100 µM,–,> 100 µM,–,> 100 µM,–,–
C=CC(C)(O)/C=C/C=C(\C)C(CC1OC1(C)C)OC(=O)/C(C)=C\C (stereo not drawn),–,> 100 µM,–,> 100 µM,–,> 100 µM,–,> 100 µM,–,> 100 µM,–,> 100 µM,–,> 100 µM,–,> 100 µM,–,> 100 µM,–,> 100 µM
CC(=O)O[C@H](C[C@H](C(C)C)N(C)C(=O)[C@@H](NC(=O)[C@H]1CCCCN1C)C(C)C)c1nc(C(=O)N[C@@H](Cc2ccccc2)C[C@H](C)C(=O)O)c(C(C)C)s1,< 0.00333 µM,2 µM,0.00336 µM,> 33.3 µM,5.21 nM,> 15.5 µM,< 0.00333 µM,> 33.3 µM,–,–,0.0176 µM,> 33.3 µM,< 0.00333 µM,> 33.3 µM,< 0.00333 µM,19.2 µM,< 3.33 nM,> 33.3 µM,< 3.33 nM,> 33.3 µM
CC/C=C\C/C=C\C[C@H](O)C/C=C1/C(=O)C=C[C@@H]1C/C=C\CCCC(=O)O,2.21 µM,4.28 µM,14.5 µM,30.5 µM,7260 nM,20.4 µM,3.46 µM,15.6 µM,3.83 µM,13.3 µM,7.22 µM,30 µM,5.2 µM,34 µM,3.33 µM,13.2 µM,2460 nM,16.7 µM,1940 nM,8.02 µM
O=C(O)CCC(=O)c1ccc2ccc3cccc4ccc1c2c34,–,> 100 µM,–,> 100 µM,–,> 100 µM,–,> 100 µM,–,> 100 µM,–,> 100 µM,–,> 100 µM,–,> 100 µM,–,> 100 µM,–,> 100 µM
O=C(Nc1ccc(Oc2ccc3nc(NC(=O)c4ccccc4)[nH]c3c2)cc1)Nc1cc(C(F)(F)F)ccc1F,2.38 µM,> 21.5 µM,0.969 µM,> 25 µM,887 nM,8.81 µM,1.3 µM,11.9 µM,1.61 µM,12.9 µM,4.41 µM,> 25 µM,2.03 µM,24.4 µM,0.832 µM,3.63 µM,3090 nM,20.2 µM,818 nM,4.01 µM
COc1ccc(C2=NN(C(=O)c3cc(OC)c(OC)c(OC)c3)C(c3ccc(Cl)cc3)C2)cc1OC (stereo not drawn),7.61 µM,> 100 µM,5.86 µM,> 100 µM,–,5.41 µM,3.95 µM,98.9 µM,1.65 µM,> 55.9 µM,76.5 µM,> 100 µM,2.66 µM,23.6 µM,3.71 µM,63.6 µM,448 nM,> 100 µM,549 nM,15.5 µM
COC(=O)[C@]12CC[C@@H](C)[C@H](C)[C@@H]1C1=CC[C@@H]3[C@@]4(C)C(C=O)=C[C@@](C)(COC(=O)c5ccco5)[C@@H]4C(=O)C[C@@]3(C)[C@]1(C)CC2,6.22 µM,> 100 µM,4.64 µM,> 100 µM,1370 nM,91 µM,0.0359 µM,0.256 µM,0.0524 µM,> 100 µM,68.8 µM,> 100 µM,7.03 µM,> 100 µM,0.5 µM,2.78 µM,3120 nM,39.4 µM,232 nM,2.34 µM
Cc1ccc(Nc2n[nH]c(=S)s2)cc1,–,> 100 µM,–,> 100 µM,–,> 100 µM,–,> 100 µM,–,> 100 µM,–,> 100 µM,–,> 100 µM,–,–,–,> 100 µM,–,> 100 µM
CN(C)c1ccc(/C=C(\C#N)c2nc3ccccc3n2C)cc1,4.43 µM,27.7 µM,8.65 µM,> 100 µM,5680 nM,28.9 µM,6.17 µM,60.6 µM,8.8 µM,> 78.2 µM,8.49 µM,49.8 µM,5.96 µM,> 95.1 µM,3.9 µM,68.5 µM,279 nM,> 100 µM,2040 nM,37.2 µM
Oc1c(CN2CCCC2)cc(COCc2ccc(Br)cc2)c2cccnc12,0.901 µM,3.61 µM,0.723 µM,11.8 µM,1930 nM,7.56 µM,1.44 µM,5.18 µM,1.16 µM,6.31 µM,2.87 µM,13.6 µM,0.76 µM,6.28 µM,1.47 µM,3.97 µM,365 nM,2.23 µM,343 nM,1.72 µM
C/C(=N\N=C(\[Se])N1CCN(c2ccccn2)CC1)c1ccccn1,–,23.3 µM,0.0937 µM and 0.559 µM,9.7 µM,4.4 nM,13.2 µM,0.159 µM,3.78 µM,–,22.7 µM,0.00643 µM,21.8 µM,–,19.5 µM,–,2.36 µM,4170 nM,54.4 µM,–,–
O=C(Nc1cccc(Oc2nnc(Cl)c3ccccc23)c1)Nc1ccc(Cl)c(C(F)(F)F)c1,0.872 µM,3.48 µM,0.646 µM,6.49 µM,352 nM,1.96 µM,0.968 µM,4 µM,0.933 µM,3.54 µM,1.24 µM,4.26 µM,0.793 µM,5.5 µM,0.698 µM,3.24 µM,321 nM,1.42 µM,–,–
CO/N=C(\C)c1cccc(Nc2cc(-c3ccccc3)nc3c(O)cccc23)c1,2.88 µM,12.6 µM,17.4 µM,59.6 µM,5280 nM,28.9 µM,12.5 µM,35.4 µM,12.4 µM,43.5 µM,20.3 µM,60.7 µM,–,–,5.76 µM,> 100 µM,3830 nM,29.8 µM,6010 nM,29.2 µM
O=C(CN1CCN(c2ccc(Cl)cc2)CC1)N1CCN(c2nnc(-c3ccc(Cl)cc3)c(-c3ccc(Cl)cc3)n2)CC1,> 100 µM,> 100 µM,21.5 µM,> 100 µM,22400 nM,60.4 µM,39.9 µM,> 100 µM,> 100 µM,> 100 µM,> 100 µM,> 100 µM,34 µM,> 100 µM,51.5 µM,> 100 µM,10100 nM,53.9 µM,–,–
